These results are taken from article PMC9500072, “Topical application of an irreversible small molecule inhibitor of lysyl oxidases ameliorates skin scarring and fibrosis” (Nature Communications, 2022).

For one data set, the system named is HepG2 cells. The data set is described as follows: Phospholipidosis in HepG2 cells. The note with it: 0–100 µM. The data set is classed as cell-based.
Another data set deals with primary scar fibroblasts. The data set is described as follows: Scar-in-a-jar collagen I immunofluorescence (deposition, coherency). The data set is classed as cell-based, human. As to the method:
Fibrillar collagen I deposition was measured using confocal image analysis (Fig. 4f–k). […] Furthermore, coherency analysis[18] was used to determine collagen alignment. This analysis specifically analyses the alignment of collagen fibers, with more alignment increasing the score and more random distribution provided a lower score. In scar tissue scores are higher as fibers are densely parallel aligned in contrast to normal skin[18].
An experimental ‘Scar-in-a-jar’ protocol developed by Chen and Raghunath[36] was followed for quantitation of collagen per cell and to measure the orientation of collagen under fibrotic conditions in vitro. […] The images then further analyzed for collagen coherency measurements using ‘Fiji is just image j’s’ (FIJI) orientation J application as previously reported[18],[37]. For quantitation of collagen per cell, an image of whole chamber slide was captured using fluorescence microscope (Nikon inverted microscope). The 488 nm green and Hoechst stained blue images were collected, and analyzed using NIS-Elements software (Nikon, Japan). The six ROIs were selected from each image and the binary thresholds were recorded for each corresponding image. […]

The next data set has as its system keratinocytes. The data set is described as follows: RNASeq transcriptome analysis, keratinocytes. The data set is classed as cell-based, human. Particulars: 24 hrs of treatment.
The target in the next data set is Adrenergic α1D (Homo sapiens, UniProt P25100). The data set is described as follows: Eurofins panel 203400. The data set is classed as binding.
Sequence of Adrenergic α1D (P25100 whole entry): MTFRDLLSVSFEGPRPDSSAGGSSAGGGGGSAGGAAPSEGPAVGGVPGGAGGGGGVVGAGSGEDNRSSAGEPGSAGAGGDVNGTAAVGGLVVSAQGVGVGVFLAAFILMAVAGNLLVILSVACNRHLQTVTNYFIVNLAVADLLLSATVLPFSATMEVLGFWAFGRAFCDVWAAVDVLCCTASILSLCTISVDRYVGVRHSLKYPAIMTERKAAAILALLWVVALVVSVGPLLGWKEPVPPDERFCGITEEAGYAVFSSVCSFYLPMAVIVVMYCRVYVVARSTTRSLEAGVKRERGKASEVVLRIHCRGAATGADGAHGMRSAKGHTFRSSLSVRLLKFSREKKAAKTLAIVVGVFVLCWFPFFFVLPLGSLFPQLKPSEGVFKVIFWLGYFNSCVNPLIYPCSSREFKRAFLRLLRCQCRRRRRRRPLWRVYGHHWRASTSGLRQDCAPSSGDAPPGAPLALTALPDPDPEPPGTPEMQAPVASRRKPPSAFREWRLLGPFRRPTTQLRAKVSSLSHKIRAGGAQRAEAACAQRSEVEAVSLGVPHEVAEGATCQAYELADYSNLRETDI
Data set [1] addresses Epidermal Growth Factor (EGF) (Homo sapiens, UniProt P00533). The data set is described as follows: Eurofins panel 225510. The data set is classed as binding.
In the next data set the test system is GABAA, Muscimol, Central. Nature of the data set: Eurofins panel 226500. The note with it: 10 µM. The data set is classed as binding, rat.
The target of the next data set is GABAB1A (Homo sapiens, UniProt Q9UBS5). The data set is described as follows: Eurofins panel 228610. The data set is classed as binding.
Sequence of GABAB1A (Q9UBS5 15-961 limits assumed): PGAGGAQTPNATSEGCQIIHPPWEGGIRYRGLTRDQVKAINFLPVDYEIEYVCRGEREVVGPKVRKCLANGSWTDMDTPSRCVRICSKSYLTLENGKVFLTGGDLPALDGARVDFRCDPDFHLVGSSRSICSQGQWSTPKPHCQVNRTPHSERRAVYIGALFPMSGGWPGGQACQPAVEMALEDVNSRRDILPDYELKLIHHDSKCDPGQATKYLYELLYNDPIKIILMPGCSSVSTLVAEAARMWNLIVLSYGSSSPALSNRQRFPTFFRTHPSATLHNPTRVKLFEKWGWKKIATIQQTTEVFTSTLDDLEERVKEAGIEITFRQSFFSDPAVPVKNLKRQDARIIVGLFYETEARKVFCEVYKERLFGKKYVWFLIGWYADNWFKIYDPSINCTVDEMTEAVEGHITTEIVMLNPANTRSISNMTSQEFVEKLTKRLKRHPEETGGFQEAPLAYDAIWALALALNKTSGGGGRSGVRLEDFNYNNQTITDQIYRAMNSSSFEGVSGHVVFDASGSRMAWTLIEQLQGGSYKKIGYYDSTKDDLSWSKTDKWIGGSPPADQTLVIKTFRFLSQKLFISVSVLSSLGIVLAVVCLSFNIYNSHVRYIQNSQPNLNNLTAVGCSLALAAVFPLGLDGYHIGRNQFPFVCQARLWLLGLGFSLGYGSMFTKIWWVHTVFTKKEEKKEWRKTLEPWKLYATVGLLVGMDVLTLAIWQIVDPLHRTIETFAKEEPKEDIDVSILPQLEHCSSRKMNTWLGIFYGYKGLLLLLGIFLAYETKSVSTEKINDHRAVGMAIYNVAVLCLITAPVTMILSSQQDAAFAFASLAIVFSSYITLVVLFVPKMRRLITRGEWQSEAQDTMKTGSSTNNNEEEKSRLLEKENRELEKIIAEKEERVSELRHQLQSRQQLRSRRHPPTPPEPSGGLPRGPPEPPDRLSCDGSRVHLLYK
Another data set deals with Histamine H3 (Homo sapiens, UniProt Q9Y5N1). Nature of the data set: Eurofins panel 239820. The data set is classed as binding.
Sequence of Histamine H3 (Q9Y5N1 whole entry): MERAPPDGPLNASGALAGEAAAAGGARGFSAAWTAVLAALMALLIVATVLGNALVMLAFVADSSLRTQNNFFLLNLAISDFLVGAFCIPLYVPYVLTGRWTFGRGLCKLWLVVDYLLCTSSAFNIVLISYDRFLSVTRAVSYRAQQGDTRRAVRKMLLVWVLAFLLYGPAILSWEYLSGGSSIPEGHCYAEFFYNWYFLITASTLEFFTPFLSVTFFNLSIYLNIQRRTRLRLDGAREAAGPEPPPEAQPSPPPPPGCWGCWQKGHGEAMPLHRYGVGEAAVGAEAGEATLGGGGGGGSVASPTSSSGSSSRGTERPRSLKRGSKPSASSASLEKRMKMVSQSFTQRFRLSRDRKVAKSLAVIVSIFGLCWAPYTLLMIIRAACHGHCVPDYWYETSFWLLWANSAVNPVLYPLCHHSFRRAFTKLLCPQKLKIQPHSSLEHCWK
A further data set has as its system Imidazoline I2, Central. Nature of the data set: Eurofins panel 241000. The data set is classed as binding, rat. The note with it: 10 µM.
For data set [2], the target named is Platelet Activating Factor (PAF) (Homo sapiens, UniProt P25105). Nature of the data set: Eurofins panel 265010. The data set is classed as binding.
Sequence of Platelet Activating Factor (PAF) (P25105 whole entry): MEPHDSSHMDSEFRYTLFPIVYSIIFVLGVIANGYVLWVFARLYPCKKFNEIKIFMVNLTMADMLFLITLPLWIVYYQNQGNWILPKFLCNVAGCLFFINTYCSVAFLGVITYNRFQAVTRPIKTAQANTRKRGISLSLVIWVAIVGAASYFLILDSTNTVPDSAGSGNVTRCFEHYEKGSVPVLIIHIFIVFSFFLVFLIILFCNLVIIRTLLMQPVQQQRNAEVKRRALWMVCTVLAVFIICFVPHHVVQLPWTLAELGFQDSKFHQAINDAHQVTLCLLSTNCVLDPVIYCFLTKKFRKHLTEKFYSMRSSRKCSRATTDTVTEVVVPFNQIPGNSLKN
For another data set, the target named is Tachykinin NK1 (Homo sapiens, UniProt P25103). Nature of the data set: Eurofins panel 255520. The data set is classed as binding.
Sequence of Tachykinin NK1 (P25103 whole entry): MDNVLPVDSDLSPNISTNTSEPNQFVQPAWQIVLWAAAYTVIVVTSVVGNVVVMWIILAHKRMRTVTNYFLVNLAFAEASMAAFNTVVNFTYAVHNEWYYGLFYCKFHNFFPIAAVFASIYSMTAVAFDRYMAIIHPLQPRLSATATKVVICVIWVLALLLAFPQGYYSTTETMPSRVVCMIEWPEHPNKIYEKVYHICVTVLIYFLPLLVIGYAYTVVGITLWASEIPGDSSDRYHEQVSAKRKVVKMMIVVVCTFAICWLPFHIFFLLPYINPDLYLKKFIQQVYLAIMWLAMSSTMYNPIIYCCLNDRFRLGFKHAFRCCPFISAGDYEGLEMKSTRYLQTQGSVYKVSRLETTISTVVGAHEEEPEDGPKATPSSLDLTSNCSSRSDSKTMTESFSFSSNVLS
Another data set deals with Transporter, GABA (Rattus norvegicus, UniProt P23978). Nature of the data set: Eurofins panel 226400. The data set is classed as binding.
A further data set can be described thus: LogD. The data set is classed as physicochemical.
The nature of data set [3]: Franz Cell skin permeability assay. The data set is classed as in vitro ADME, human. Particulars: 3% cream on epidermis of human skin ex vivo.
Data set [4] relates to deep-dermal contact burn scar. Nature of the data set: Porcine burn injury model with tensile strength testing. The data set is classed as in vivo, pig.
The target in the next data set is Cyclooxygenase COX-1 (Homo sapiens, UniProt P23219). The data set is described as follows: Eurofins panel 116020. The data set is classed as biochemical.
The target of the next data set is Vasopressin V1A (Homo sapiens, UniProt P37288). Nature of the data set: Eurofins panel 287530. The data set is classed as binding.
Sequence of Vasopressin V1A (P37288 whole entry): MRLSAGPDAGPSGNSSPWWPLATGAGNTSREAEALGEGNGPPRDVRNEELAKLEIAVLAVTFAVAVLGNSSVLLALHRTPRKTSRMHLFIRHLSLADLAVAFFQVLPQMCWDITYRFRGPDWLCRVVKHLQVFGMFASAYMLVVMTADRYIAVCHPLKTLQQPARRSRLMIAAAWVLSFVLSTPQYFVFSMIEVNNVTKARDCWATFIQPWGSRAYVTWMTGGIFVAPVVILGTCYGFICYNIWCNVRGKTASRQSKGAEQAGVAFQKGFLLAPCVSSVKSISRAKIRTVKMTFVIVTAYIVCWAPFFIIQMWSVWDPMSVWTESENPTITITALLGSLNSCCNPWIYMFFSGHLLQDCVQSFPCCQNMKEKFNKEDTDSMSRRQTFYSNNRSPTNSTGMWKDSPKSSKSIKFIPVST

Sequence of Epidermal Growth Factor (EGF) (P00533 25-1210): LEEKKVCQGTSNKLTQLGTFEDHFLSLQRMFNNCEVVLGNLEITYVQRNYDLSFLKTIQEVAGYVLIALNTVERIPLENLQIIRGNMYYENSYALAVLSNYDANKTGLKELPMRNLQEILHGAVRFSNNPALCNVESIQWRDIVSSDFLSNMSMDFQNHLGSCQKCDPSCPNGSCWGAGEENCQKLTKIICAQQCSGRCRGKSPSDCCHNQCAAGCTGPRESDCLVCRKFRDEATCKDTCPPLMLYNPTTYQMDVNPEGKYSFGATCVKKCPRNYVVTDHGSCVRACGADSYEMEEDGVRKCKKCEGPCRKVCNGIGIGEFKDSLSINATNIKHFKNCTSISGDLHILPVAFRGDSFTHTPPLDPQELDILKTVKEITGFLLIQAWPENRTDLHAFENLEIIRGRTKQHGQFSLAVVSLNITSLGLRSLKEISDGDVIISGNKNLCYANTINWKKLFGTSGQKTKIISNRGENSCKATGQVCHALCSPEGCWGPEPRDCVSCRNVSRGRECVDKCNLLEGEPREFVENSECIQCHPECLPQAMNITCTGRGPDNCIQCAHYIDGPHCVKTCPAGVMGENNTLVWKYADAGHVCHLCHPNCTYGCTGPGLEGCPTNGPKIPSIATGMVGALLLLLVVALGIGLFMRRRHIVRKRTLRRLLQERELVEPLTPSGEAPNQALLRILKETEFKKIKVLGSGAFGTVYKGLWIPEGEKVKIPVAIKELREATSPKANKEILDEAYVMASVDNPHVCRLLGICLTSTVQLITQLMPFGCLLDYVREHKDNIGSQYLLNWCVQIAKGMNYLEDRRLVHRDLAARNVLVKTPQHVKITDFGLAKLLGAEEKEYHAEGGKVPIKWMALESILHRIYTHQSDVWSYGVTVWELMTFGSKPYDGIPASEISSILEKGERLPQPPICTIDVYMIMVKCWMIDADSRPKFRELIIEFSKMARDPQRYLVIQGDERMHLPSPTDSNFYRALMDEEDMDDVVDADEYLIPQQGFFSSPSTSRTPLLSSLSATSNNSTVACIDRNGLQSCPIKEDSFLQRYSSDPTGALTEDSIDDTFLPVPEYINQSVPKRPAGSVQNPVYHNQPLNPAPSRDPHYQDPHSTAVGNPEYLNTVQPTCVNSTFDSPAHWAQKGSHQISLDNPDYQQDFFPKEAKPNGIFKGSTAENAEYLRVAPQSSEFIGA

By inhibition is commonly meant the relative decrease from the control value, in per cent. For `NC/C=C(\F)CS(=O)(=O)c1ccccc1` [PXS-4787], the phospholipidosis score in the data set on HepG2 cells was determined as 0. Also, in the data set with primary scar fibroblasts (10 µM vs control and 1 µM), the “deposited fibrillar collagen I” value was “significantly reduced”. Besides, the “collagen I coherency” value in the data set on primary scar fibroblasts (1 and 10 µM vs control) is “significantly reduced coherency”. In addition, in the data set with keratinocytes, the “Log2 fold change LOC101927136” value is 3.918. The “Log2 fold change TMOD1” value with keratinocytes came out at 4.799. Moreover, the inhibition at 10 µM is -1% on Adrenergic α1D; 1% in [1]; 6% at GABAB1A; -5% against Histamine H3; -11% in data set [2]; 10% against Tachykinin NK1. Moreover, the inhibition at 10 µM against Transporter, GABA is 0%. For the same compound, the “% Inh.” value in the data set on GABAA, Muscimol, Central is listed as 13%; with Imidazoline I2, Central, -10%.

One may read the logD as lipophilicity at a set pH, counting ionised and neutral species. Lower therefore signals a more hydrophilic compound. Compound `NC/C=C(\F)C(F)(F)S(=O)(=O)c1ccccc1` [PXS-6302] showed a logD in “LogD” of 1. The “further increase of concentration in reservoir chamber over the next 14 h” value in [3] was found to be 10 fold. Moreover, the “increase of concentration in reservoir chamber between 2 and 6 h” value in [3] is given as 10 fold. For the same compound, in [4] (3% cream), the “tensile strength, treated vs control scars” value was “no significant differences”. For the same compound, the “scar photo score by blinded plastic surgeons vs placebo” value in data set [4] (3% cream once daily from re-epithelialisation to 2 months post-injury) is reported as “significantly better”. The “treated scars with lower Young's modulus than matched vehicle treated scar” value in [4] (3% cream, p = 0.15) is listed as 5/6. Also, the inhibition at 30 µM on Cyclooxygenase COX-1 came out at 36%; against Vasopressin V1A, 3%.
